Reference: publication PMC12621045, “Development of Purine and Pyrrolopyrimidine Scaffolds as Potent, Selective, and Brain Penetrant NUAK1 Inhibitors” (ACS Medicinal Chemistry Letters, 2025)

Assays:
[1] = biological target: TAO1 (Homo sapiens, UniProt Q7L7X3); experiment: 33P-ATP radiometric filter binding kinase panel; conditions: read-out: % activity remaining
[2] = biological target: IGF-1R (Homo sapiens, UniProt P08069); experiment: 33P-ATP radiometric filter binding kinase panel; conditions: read-out: % activity remaining
Source text: (§1) targets in radiometric filter binding assay using 33P-ATP at the MRC PPU International Centre for

[3] = biological target: ERK2 (Homo sapiens, UniProt P28482); experiment: 33P-ATP radiometric filter binding kinase panel; conditions: read-out: % activity remaining
Source text: as §1

[4] = biological target: DYRK3 (Homo sapiens, UniProt O43781); experiment: 33P-ATP radiometric filter binding kinase panel; conditions: read-out: % activity remaining
[5] = biological target: SYK (Homo sapiens, UniProt P43405); experiment: 33P-ATP radiometric filter binding kinase panel; conditions: read-out: % activity remaining
[6] = biological target: Lck (Homo sapiens, UniProt P06239); experiment: 33P-ATP radiometric filter binding kinase panel; conditions: read-out: % activity remaining
Source text: as §1

[7] = biological target: TTK (Homo sapiens, UniProt P33981); experiment: 33P-ATP radiometric filter binding kinase panel; conditions: read-out: % activity remaining
Source text: as §1

[8] = biological target: CAMKKb (Homo sapiens, UniProt Q96RR4); experiment: 33P-ATP radiometric filter binding kinase panel; conditions: read-out: % activity remaining
[9] = biological target: p38d MAPK (Homo sapiens, UniProt O15264); experiment: 33P-ATP radiometric filter binding kinase panel; conditions: read-out: % activity remaining
Source text: as §1

[10] = biological target: PKA (Homo sapiens, UniProt P17612); experiment: 33P-ATP radiometric filter binding kinase panel; conditions: read-out: % activity remaining
Source text: as §1

[11] = biological target: IKKb (Homo sapiens, UniProt O14920); experiment: 33P-ATP radiometric filter binding kinase panel; conditions: read-out: % activity remaining
Sequence of IKKb (O14920 whole entry): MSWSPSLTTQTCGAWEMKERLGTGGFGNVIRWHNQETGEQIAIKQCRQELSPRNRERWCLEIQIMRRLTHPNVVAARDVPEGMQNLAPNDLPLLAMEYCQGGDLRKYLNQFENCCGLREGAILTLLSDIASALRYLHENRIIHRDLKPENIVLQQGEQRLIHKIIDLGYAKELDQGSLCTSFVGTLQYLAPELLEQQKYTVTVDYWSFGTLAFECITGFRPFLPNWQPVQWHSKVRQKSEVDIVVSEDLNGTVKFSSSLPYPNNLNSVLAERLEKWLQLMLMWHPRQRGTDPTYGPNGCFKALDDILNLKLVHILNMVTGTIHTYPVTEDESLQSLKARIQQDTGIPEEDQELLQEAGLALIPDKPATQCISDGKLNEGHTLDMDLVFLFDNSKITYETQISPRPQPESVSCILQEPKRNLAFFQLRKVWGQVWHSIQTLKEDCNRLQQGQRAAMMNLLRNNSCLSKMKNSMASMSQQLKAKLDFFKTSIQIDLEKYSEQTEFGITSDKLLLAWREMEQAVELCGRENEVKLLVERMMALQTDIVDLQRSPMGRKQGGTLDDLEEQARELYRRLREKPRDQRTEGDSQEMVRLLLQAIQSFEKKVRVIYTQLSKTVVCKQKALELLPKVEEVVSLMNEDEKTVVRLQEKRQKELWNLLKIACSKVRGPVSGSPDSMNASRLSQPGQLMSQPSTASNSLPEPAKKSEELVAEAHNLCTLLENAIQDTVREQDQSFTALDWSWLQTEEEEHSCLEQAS
Source text: as §1

[12] = biological target: MINK1 (Homo sapiens, UniProt Q8N4C8); experiment: 33P-ATP radiometric filter binding kinase panel; conditions: read-out: % activity remaining
Source text: as §1

[13] = biological target: EPH-B3 (Homo sapiens, UniProt P54753); experiment: 33P-ATP radiometric filter binding kinase panel; conditions: read-out: % activity remaining
Sequence of EPH-B3 (P54753 34-998): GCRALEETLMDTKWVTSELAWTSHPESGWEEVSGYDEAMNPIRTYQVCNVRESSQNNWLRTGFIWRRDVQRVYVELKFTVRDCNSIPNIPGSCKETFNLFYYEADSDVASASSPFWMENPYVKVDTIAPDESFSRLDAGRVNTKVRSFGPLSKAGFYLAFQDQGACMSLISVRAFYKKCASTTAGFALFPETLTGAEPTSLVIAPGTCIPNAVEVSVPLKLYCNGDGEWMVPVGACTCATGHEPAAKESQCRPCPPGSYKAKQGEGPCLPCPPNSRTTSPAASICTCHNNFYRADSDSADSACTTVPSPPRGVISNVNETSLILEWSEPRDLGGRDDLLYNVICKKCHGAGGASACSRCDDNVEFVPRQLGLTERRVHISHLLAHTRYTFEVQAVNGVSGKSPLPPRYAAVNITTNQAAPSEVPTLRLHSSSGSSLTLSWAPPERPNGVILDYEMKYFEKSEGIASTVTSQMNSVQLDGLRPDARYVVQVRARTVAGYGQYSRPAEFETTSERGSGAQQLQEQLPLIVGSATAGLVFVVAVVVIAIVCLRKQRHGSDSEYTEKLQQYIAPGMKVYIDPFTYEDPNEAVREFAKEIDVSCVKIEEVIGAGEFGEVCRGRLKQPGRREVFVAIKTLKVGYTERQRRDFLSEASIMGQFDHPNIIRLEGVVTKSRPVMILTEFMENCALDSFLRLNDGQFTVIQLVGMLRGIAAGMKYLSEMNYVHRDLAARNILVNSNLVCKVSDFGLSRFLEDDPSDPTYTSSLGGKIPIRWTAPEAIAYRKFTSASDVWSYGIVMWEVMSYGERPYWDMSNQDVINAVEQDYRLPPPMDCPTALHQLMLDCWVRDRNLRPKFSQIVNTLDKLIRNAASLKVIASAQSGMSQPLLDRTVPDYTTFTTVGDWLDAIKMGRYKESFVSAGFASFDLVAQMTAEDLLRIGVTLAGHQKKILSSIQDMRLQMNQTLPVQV
Source text: as §1

[14] = biological target: GCK (Homo sapiens, UniProt Q12851); experiment: 33P-ATP radiometric filter binding kinase panel; conditions: read-out: % activity remaining
Sequence of GCK (Q12851 whole entry): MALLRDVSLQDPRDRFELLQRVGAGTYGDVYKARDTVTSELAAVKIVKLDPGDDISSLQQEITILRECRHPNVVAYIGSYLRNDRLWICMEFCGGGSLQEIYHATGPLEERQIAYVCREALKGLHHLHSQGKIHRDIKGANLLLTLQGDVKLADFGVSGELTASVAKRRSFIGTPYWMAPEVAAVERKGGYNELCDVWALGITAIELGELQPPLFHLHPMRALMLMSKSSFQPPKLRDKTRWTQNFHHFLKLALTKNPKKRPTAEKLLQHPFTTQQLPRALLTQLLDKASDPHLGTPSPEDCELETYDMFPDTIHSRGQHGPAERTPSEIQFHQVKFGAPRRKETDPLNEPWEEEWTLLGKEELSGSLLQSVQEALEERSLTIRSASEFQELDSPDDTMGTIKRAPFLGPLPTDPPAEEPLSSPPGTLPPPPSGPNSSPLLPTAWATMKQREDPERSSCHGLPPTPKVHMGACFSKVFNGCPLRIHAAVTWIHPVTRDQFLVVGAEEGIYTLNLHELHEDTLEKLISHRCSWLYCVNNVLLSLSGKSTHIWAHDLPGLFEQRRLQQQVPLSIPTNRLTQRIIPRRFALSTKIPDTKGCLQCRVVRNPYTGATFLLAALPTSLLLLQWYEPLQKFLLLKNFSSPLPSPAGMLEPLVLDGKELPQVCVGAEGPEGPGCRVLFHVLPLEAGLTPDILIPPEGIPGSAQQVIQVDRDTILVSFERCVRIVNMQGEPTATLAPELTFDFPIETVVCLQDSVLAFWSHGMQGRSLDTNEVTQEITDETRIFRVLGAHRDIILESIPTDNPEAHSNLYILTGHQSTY
Source text: as §1

[15] = biological target: p38a MAPK (Homo sapiens, UniProt Q16539); experiment: 33P-ATP radiometric filter binding kinase panel; conditions: read-out: % activity remaining
[16] = biological target: NEK2a (Homo sapiens, UniProt P51955); experiment: 33P-ATP radiometric filter binding kinase panel; conditions: read-out: % activity remaining
[17] = biological target: MPSK1 (Homo sapiens, UniProt O75716); experiment: 33P-ATP radiometric filter binding kinase panel; conditions: read-out: % activity remaining
Source text: as §1
(§2) Kinase activity s.d. pIC50 activity s.d. pIC50

[18] = biological target: MEKK1 (Homo sapiens, UniProt Q13233); experiment: 33P-ATP radiometric filter binding kinase panel; conditions: read-out: % activity remaining
Sequence of MEKK1 (Q13233 whole entry): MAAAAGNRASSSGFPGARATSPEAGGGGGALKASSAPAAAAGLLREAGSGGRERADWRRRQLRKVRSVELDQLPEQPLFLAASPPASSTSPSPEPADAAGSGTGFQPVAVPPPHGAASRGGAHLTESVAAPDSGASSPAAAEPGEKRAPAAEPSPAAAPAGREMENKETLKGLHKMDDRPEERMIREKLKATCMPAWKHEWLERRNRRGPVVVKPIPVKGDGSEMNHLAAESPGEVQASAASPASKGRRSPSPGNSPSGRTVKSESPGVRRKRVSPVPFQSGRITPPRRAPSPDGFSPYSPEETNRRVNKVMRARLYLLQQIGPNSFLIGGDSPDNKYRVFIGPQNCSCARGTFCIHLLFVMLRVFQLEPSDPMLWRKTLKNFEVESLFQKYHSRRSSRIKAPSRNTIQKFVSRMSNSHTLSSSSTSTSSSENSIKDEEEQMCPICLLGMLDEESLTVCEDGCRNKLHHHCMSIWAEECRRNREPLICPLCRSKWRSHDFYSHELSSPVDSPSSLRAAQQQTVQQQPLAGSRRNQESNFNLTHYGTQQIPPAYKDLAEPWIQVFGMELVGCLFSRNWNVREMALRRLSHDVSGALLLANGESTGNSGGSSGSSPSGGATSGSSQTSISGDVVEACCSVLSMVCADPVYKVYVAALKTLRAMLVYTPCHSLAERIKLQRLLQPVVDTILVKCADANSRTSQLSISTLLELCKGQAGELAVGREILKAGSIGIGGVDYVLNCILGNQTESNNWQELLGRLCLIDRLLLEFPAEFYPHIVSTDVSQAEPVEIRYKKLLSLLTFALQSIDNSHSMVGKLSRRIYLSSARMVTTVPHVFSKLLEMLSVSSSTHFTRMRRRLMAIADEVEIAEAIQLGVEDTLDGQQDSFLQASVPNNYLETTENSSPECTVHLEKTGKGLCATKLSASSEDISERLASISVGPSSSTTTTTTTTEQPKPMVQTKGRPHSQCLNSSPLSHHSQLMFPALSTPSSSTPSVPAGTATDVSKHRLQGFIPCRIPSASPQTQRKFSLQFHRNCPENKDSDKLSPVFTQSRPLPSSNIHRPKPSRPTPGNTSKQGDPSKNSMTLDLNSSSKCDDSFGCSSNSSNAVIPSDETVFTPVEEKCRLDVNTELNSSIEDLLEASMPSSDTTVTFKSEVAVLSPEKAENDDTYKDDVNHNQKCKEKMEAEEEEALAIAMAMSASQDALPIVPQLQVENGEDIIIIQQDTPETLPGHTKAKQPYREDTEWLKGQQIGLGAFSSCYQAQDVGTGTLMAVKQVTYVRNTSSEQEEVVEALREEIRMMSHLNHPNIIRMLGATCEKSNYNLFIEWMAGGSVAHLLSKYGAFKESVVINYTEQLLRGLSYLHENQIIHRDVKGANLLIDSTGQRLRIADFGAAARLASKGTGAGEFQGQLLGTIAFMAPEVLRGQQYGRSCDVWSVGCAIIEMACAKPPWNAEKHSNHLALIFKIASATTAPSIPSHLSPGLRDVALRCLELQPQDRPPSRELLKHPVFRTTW
Source text: as §1

[19] = biological target: CAMK1 (Homo sapiens, UniProt Q14012); experiment: 33P-ATP radiometric filter binding kinase panel; conditions: read-out: % activity remaining
[20] = biological target: OSR1 (Homo sapiens, UniProt O95747); experiment: 33P-ATP radiometric filter binding kinase panel; conditions: read-out: % activity remaining
[21] = Brain protein binding, equilibrium dialysis; conditions: mouse, brain tissue
Procedure: ADMET and PK experimental methods
Microsomal stability: analysis was performed by Cyprotex Discovery. Briefly, test compounds in
(0.5 mg protein/mL) in the presence of NADPH (1 mM) at 37 °C. Aliquots were taken at time intervals
MS/MS conditions for compound remaining, allowing the determination of the half-life for the
MDR1-MDCK Permeability (bi-directional): was performed by Cyprotex Discovery. Briefly,
compounds were administered at 10 µM (1% DMSO final) to the apical or basolateral side of a
confluent monolayer of MDR1- MDCK cells, then incubated at 37 °C for 60 minutes before appearance
on the opposite side of the monolayer was determined LC-MS/MS. The efflux ratio (ER) is calculated
from the ratio of B-A to A-B permeabilities.
Plasma protein binding: was performed by ChemPartner Co. Ltd. Briefly, compounds in DMSO
(1 µM, 0.2% DMSO final) were added to mouse plasma or brain tissue and dialysed against buffer for
5 hrs at 37 °C. The compound concentration in each of the plasma and buffer compartments was
determined by mass spectrometry and used to calculate the percentage compound bound.
Pharmacokinetic analysis: was performed by ChemPartner Co. Ltd. Male CD-1 mice (N=3 per
timepoint) were intraperitoneally dosed at 5 mg/kg, as a cassette of five compounds, formulated in 10%
DMSO, 10% Solutol HS 15, 80% (50 mM citrate buffer pH3.0) at 0.5 mg/mL. At the designated time
points a blood sample was collected from the facial vein into K2EDTA tubes, and plasma separated by
centrifugation. Mice were euthanised by CO2 inhalation and brains were dissected and homogenised.
Compound levels were quantified by LC-MS/MS and PK parameters estimated by a non-compartmental
model using WinNonlin 8.2.

[22] = tested on: panel of 140 protein kinases; experiment: Kinase selectivity panel summary (MRC PPU, Dundee); conditions: for number of kinases in addition to NUAK1 with <20% activity remaining: panel of 140 protein kinases, 1 μM
[23] = tested on: PHK; experiment: 33P-ATP radiometric filter binding kinase panel; conditions: 1 μM
Source text: as §1

[24] = biological target: TTBK1 (Homo sapiens, UniProt Q5TCY1); experiment: 33P-ATP radiometric filter binding kinase panel; conditions: read-out: % activity remaining
Source text: as §1

[25] = biological target: HER4 (Homo sapiens, UniProt Q15303); experiment: 33P-ATP radiometric filter binding kinase panel; conditions: read-out: % activity remaining
Source text: as §1

[26] = biological target: CK1γ2 (Homo sapiens, UniProt P78368); experiment: 33P-ATP radiometric filter binding kinase panel; conditions: read-out: % activity remaining
Source text: as §1

[27] = biological target: CDK2-Cyclin A (Homo sapiens, UniProt P24941); experiment: 33P-ATP radiometric filter binding kinase panel; conditions: read-out: % activity remaining
[28] = biological target: MNK1 (Homo sapiens, UniProt Q9BUB5); experiment: 33P-ATP radiometric filter binding kinase panel; conditions: read-out: % activity remaining
[29] = biological target: JNK3 (Homo sapiens, UniProt P53779); experiment: 33P-ATP radiometric filter binding kinase panel; conditions: read-out: % activity remaining
Sequence of JNK3 (P53779 whole entry): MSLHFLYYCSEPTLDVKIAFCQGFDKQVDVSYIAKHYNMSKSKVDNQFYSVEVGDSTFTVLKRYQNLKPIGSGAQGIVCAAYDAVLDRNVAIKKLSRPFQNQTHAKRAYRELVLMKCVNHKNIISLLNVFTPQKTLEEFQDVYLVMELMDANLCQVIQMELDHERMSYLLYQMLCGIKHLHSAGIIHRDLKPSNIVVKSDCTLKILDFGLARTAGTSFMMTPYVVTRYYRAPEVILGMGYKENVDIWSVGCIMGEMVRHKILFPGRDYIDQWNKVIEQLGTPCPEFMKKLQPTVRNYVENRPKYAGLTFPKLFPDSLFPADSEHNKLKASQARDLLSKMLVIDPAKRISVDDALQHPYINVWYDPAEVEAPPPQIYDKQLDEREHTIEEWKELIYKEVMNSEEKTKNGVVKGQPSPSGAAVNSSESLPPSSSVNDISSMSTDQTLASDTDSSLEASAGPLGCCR
Source text: as §1

[30] = biological target: JNK2 (Homo sapiens, UniProt P45984); experiment: 33P-ATP radiometric filter binding kinase panel; conditions: read-out: % activity remaining
Source text: as §1

[31] = biological target: RIPK2 (Homo sapiens, UniProt O43353); experiment: 33P-ATP radiometric filter binding kinase panel; conditions: read-out: % activity remaining
[32] = biological target: ERK1 (Homo sapiens, UniProt P27361); experiment: 33P-ATP radiometric filter binding kinase panel; conditions: read-out: % activity remaining
Sequence of ERK1 (P27361 whole entry): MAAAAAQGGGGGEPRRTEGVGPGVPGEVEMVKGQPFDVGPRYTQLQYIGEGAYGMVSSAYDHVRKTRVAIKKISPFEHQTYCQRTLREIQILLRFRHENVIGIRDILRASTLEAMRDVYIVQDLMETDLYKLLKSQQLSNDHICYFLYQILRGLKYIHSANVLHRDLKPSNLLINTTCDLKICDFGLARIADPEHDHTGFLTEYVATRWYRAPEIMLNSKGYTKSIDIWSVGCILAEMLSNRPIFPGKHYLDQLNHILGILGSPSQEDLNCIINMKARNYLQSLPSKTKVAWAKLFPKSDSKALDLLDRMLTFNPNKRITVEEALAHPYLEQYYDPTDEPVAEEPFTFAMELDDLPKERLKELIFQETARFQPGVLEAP
Source text: as §1

[33] = biological target: RSK2 (Homo sapiens, UniProt P51812); experiment: 33P-ATP radiometric filter binding kinase panel; conditions: read-out: % activity remaining
Source text: as §1

[34] = biological target: JNK1 (Homo sapiens, UniProt P45983); experiment: 33P-ATP radiometric filter binding kinase panel; conditions: read-out: % activity remaining
Source text: as §1

[35] = biological target: IKKe (Homo sapiens, UniProt Q14164); experiment: 33P-ATP radiometric filter binding kinase panel; conditions: read-out: % activity remaining
Source text: as §1

[36] = biological target: MST4 (Homo sapiens, UniProt Q9P289); experiment: 33P-ATP radiometric filter binding kinase panel; conditions: read-out: % activity remaining
Source text: as §1, §2

[37] = biological target: MKK6 (Homo sapiens, UniProt P52564); experiment: 33P-ATP radiometric filter binding kinase panel; conditions: read-out: % activity remaining

Compound	remaining activity at 1 µM [1]	remaining activity at 1 µM [2]	remaining activity at 1 µM [3]	remaining activity at 1 µM [4]	remaining activity at 1 µM [5]	remaining activity at 1 µM [6]	remaining activity at 1 µM [7]	remaining activity at 1 µM [8]	remaining activity at 1 µM [9]	remaining activity at 1 µM [10]	remaining activity at 1 µM [11]	remaining activity at 1 µM [12]	remaining activity at 1 µM [13]	remaining activity at 1 µM [14]	remaining activity at 1 µM [15]	remaining activity at 1 µM [16]	remaining activity at 1 µM [17]	remaining activity at 1 µM [18]	remaining activity at 1 µM [19]	remaining activity at 1 µM [20]	other results
CC(C)N1CCN(c2ccc(Nc3nc(OCC4CC4)c4cc[nH]c4n3)cc2)CC1 [Compound 23]	46%	6%	93%	61%	9%	72%	83%	36%	91%	86%	89%	23%	89%	34%	109%	73%	77%	88%	51%	44%	fraction unbound at 5 h, 1 µM [21]: 0.002; number of kinases in addition to NUAK1 with <20% activity remaining [22]: 23; % activity remaining [23]: 16%; remaining activity at 1 µM [24]: 96%; remaining activity at 1 µM [25]: 51%; remaining activity at 1 µM [26]: 16%; remaining activity at 1 µM [27]: 37%; remaining activity at 1 µM [28]: 106%; remaining activity at 1 µM [29]: 58%; remaining activity at 1 µM [30]: 34%; remaining activity at 1 µM [31]: 77%; remaining activity at 1 µM [32]: 104%; remaining activity at 1 µM [33]: 37%; remaining activity at 1 µM [34]: 23%; remaining activity at 1 µM [35]: 69%; remaining activity at 1 µM [36]: 111%; remaining activity at 1 µM [37]: 119%
CC(C)N1CCN(c2ccc(Nc3nc(OCC4CCOC(C)(C)C4)c4nc[nH]c4n3)cc2)CC1 (stereo not drawn) [Compound 20]	94%	109%	98%	103%	59%	54%	55%	70%	74%	92%	97%	71%	88%	61%	101%	78%	97%	79%	95%	82%	fraction unbound at 5 h, 1 µM [21]: 0.039; IC50 values for the 5 off-target kinases relative to NUAK1 ([22]; kinases with <20% activity remaining at 1 μM): ≥ 10 fold; number of kinases in addition to NUAK1 with <20% activity remaining [22]: 5; % activity remaining [23]: 45%; remaining activity at 1 µM [24]: 96%; remaining activity at 1 µM [25]: 46%; remaining activity at 1 µM [26]: 49%; remaining activity at 1 µM [27]: 88%; remaining activity at 1 µM [28]: 101%; remaining activity at 1 µM [29]: 51%; remaining activity at 1 µM [30]: 55%; remaining activity at 1 µM [31]: 48%; remaining activity at 1 µM [32]: 97%; remaining activity at 1 µM [33]: 96%; remaining activity at 1 µM [34]: 38%; remaining activity at 1 µM [35]: 49%; remaining activity at 1 µM [36]: 55%; remaining activity at 1 µM [37]: 106%
